Where two headings read alike, the source gives them in different places.
Experiments:
[1] = test system: Ascites sarcoma 180; experiment: Antitumor effect on ascites sarcoma 180 in mice; settings: for LTS (long term survivors, > 60 days) / TC (median survival time as compared to untreated controls) / TOX (mice which showed toxic lesions at the autopsy): Table 1
Procedure: (§1) The compounds according to the invention were tested on several in vitro systems and experimental mouse tumors, in comparison with adriamycin.

[2] = test system: L 1210 leukemia; experiment: Antitumor effect on L 1210 leukemia in mice
Procedure: as §1

[3] = test system: Gross leukemia; experiment: Antitumor effect on Gross leukemia in mice; settings: for TC (median survival time as compared to untreated controls) / TOX (mice which showed toxic lesions at the autopsy): Table 1
Procedure: as §1

[4] = test system: solid sarcoma 180; settings: Table 2, i.v. per 5 days
Procedure: as §1

[5] = test system: Moloney sarcoma virus; experiment: Inhibition of Moloney sarcoma virus-induced foci in mouse embryo fibroblasts; assay type: cell-based; settings: text on Table 6, in vitro
Procedure: ^2 Inhibition of Moloney sarcoma virus-induced foci in mouse embryo
fibroblasts proliferation (treatment per 72 hours)

[6] = test system: experimental mouse tumors; experiment: Antitumor/therapeutic activity and toxicity in experimental mouse tumors, overall statements; assay type: in vivo
[7] = Table 4, i.p. on day 1, 2 mg./kg.
[8] = Table 4, i.p. on day 1, 4 mg./kg.
[9] = Table 4, i.p. on day 1, 8 mg./kg.
[10] = Table 1, first experiment, ip, day 1, 0.2 mg./kg.
[11] = Table 1, first experiment, ip, day 1, 1 mg./kg.
[12] = Table 1, first experiment, ip, day 1, 5 mg./kg.
[13] = Table 1, first experiment, ip, day 1, 10 mg./kg.
[14] = Table 1, second experiment, ip, day 1, 10 mg./kg.
[15] = Table 1, second experiment, ip, day 1, 12 mg./kg.
[16] = Table 1, second experiment, ip, day 1, 15 mg./kg.
[17] = Table 4, i.p. on day 1, 10 mg./kg.
[18] = Table 5, first experiment, iv, days 1,2,3, 4.5 mg./kg.
[19] = Table 5, second experiment, iv, days 1,2,3, 3.5 mg./kg.
[20] = Table 5, first experiment, iv, days 1,2,3, 6 mg./kg.

COc1cccc2c1C(=O)c1c(O)c3c(c(O)c1C2=O)C[C@@](O)(C(=O)CO)C[C@@H]3O[C@H]1C[C@H](N)[C@H](O)[C@H](C)O1 [Adriamycin]
LTS (long term survivors, > 60 days) ([1]; ip, day 1, 1 mg./kg.): 3/10
TC (median survival time as compared to untreated controls) ([1]; ip, day 1, 1 mg./kg.): 243%
TOX (mice which showed toxic lesions at the autopsy) ([1]; ip, day 1, 1 mg./kg.): 0/10
LTS (long term survivors, > 60 days) ([1]; ip, day 1, 5 mg./kg.): 3/10
TC (median survival time as compared to untreated controls) ([1]; ip, day 1, 5 mg./kg.): 150%
TOX (mice which showed toxic lesions at the autopsy) ([1]; ip, day 1, 5 mg./kg.): 0/10
LTS ([1]; Table 3, ip, day 1, 2 mg./kg.): 1/10
TC ([1]; Table 3, ip, day 1, 2 mg./kg.): 203%
LTS ([1]; Table 3, ip, day 1, 4 mg./kg.): 2/10
TC ([1]; Table 3, ip, day 1, 4 mg./kg.): 242%
LTS ([1]; Table 3, ip, day 1, 8 mg./kg.): 2/10
TC ([1]; Table 3, ip, day 1, 8 mg./kg.): 127%
TOX ([1]; Table 3, ip, day 1, 8 mg./kg.): 8/10
LTS [1, 7]: 4/10
TC [1, 7]: 271%
LTS [1, 8]: 5/10
TC [1, 8]: 493%
TOX [1, 8]: 1/10
LTS [1, 9]: 3/10
TC [1, 9]: 317%
TOX [1, 9]: 4/10
LTS ([1]; Table 5, ip, day 1, 2 mg./kg.): 4/10
TC ([1]; Table 5, ip, day 1, 2 mg./kg.): 271%
LTS ([1]; Table 5, ip, day 1, 4 mg./kg.): 5/10
TC ([1]; Table 5, ip, day 1, 4 mg./kg.): 493%
TOX ([1]; Table 5, ip, day 1, 4 mg./kg.): 1/10
LTS ([1]; Table 5, ip, day 1, 8 mg./kg.): 3/10
TC ([1]; Table 5, ip, day 1, 8 mg./kg.): 317%
TOX ([1]; Table 5, ip, day 1, 8 mg./kg.): 4/10
TC (median survival time as compared to untreated controls) [2, 10]: 111%
TC (median survival time as compared to untreated controls) [2, 11]: 133%
TC (median survival time as compared to untreated controls) [2, 12]: 139%
TC (median survival time as compared to untreated controls) [2, 13]: 150%
TOX (mice which showed toxic lesions at the autopsy) [2, 13]: 3/10
LTS (long term survivors, > 60 days) [2, 14]: 1/10
TC (median survival time as compared to untreated controls) [2, 14]: 139%
TOX (mice which showed toxic lesions at the autopsy) [2, 14]: 1/10
TC (median survival time as compared to untreated controls) [2, 15]: 167%
TOX (mice which showed toxic lesions at the autopsy) [2, 15]: 2/10
TC (median survival time as compared to untreated controls) [2, 16]: 100%
TOX (mice which showed toxic lesions at the autopsy) [2, 16]: 6/10
TC ([2]; Table 3, ip, day 1, 2.5 mg./kg.): 122%
TC ([2]; Table 3, ip, day 1, 5 mg./kg.): 155%
LTS ([2]; Table 3, ip, day 1, 10 mg./kg.): 2/9
TC ([2]; Table 3, ip, day 1, 10 mg./kg.): 233%
TOX ([2]; Table 3, ip, day 1, 10 mg./kg.): 2/9
TC ([2]; Table 4, i.p. on day 1, 2.5 mg./kg.): 122%
TC ([2]; Table 4, i.p. on day 1, 5 mg./kg.): 155%
LTS [2, 17]: 2/9
TC [2, 17]: 233%
TOX [2, 17]: 2/9
TC ([2]; Table 5, ip, day 1, 2.5 mg./kg.): 122%
TC ([2]; Table 5, ip, day 1, 5 mg./kg.): 155%
LTS ([2]; Table 5, ip, day 1, 10 mg./kg.): 2/9
TC ([2]; Table 5, ip, day 1, 10 mg./kg.): 233%
TOX ([2]; Table 5, ip, day 1, 10 mg./kg.): 2/9
TC (median survival time as compared to untreated controls) ([3]; iv, days 1,2,3, 3.5 mg./kg.): 143%
TOX (mice which showed toxic lesions at the autopsy) ([3]; iv, days 1,2,3, 3.5 mg./kg.): 1/10
TC (median survival time as compared to untreated controls) ([3]; iv, days 1,2,3, 4.5 mg./kg.): 171%
TOX (mice which showed toxic lesions at the autopsy) ([3]; iv, days 1,2,3, 6 mg./kg.): 4/10
TC ([3]; Table 5, first experiment, iv, days 1,2,3, 3.5 mg./kg.): 157%
TC [3, 18]: 178%
TC [3, 19]: 143%
TOX [3, 19]: 1/10
TC ([3]; Table 5, second experiment, iv, days 1,2,3, 4.5 mg./kg.): 171%
% tumor growth at day 11 ([4]; 2.5 mg./kg.): 42%
% tumor growth at day 11 ([4]; 3 mg./kg.): 33%

CCCCCCCCCCCCCCCCCC(=O)OCC(=O)OCC(=O)C1(O)Cc2c(O)c3c(c(O)c2C(OC2CC(N)C(O)C(C)O2)C1)C(=O)c1c(OC)cccc1C3=O.Cl (centres unmarked) [adriamycin-14-0-stearoyl glycolate, Adriamycin-14-0-Stearoyl Glycolate Hydrochloride]
antitumor effect compared with adriamycin [1]: not significantly different from that of adriamycin
LTS (long term survivors, > 60 days) ([1]; ip, day 1, 0.3 mg./kg.): 1/10
TC (median survival time as compared to untreated controls) ([1]; ip, day 1, 0.3 mg./kg.): 119%
LTS (long term survivors, > 60 days) ([1]; ip, day 1, 1.6 mg./kg.): 2/10
TC (median survival time as compared to untreated controls) ([1]; ip, day 1, 1.6 mg./kg.): 222%
TOX (mice which showed toxic lesions at the autopsy) ([1]; ip, day 1, 1.6 mg./kg.): 1/10
LTS (long term survivors, > 60 days) ([1]; ip, day 1, 7.8 mg./kg.): 1/10
TC (median survival time as compared to untreated controls) ([1]; ip, day 1, 7.8 mg./kg.): 187%
TOX (mice which showed toxic lesions at the autopsy) ([1]; ip, day 1, 7.8 mg./kg.): 1/10
antitumor activity compared with adriamycin [2]: as active as adriamycin
toxicity compared with adriamycin [2]: less toxic
TC (median survival time as compared to untreated controls) [2, 10]: 100%
TC (median survival time as compared to untreated controls) [2, 11]: 133%
TOX (mice which showed toxic lesions at the autopsy) [2, 11]: 1/10
TC (median survival time as compared to untreated controls) [2, 12]: 133%
TC (median survival time as compared to untreated controls) [2, 13]: 139%
TC (median survival time as compared to untreated controls) [2, 14]: 128%
TC (median survival time as compared to untreated controls) [2, 15]: 150%
TC (median survival time as compared to untreated controls) [2, 16]: 150%
antitumor activity compared with adriamycin [3]: as active as adriamycin
toxicity compared with adriamycin [3]: less toxic
TC (median survival time as compared to untreated controls) ([3]; iv, days 1,2,3, 4.5 mg./kg.): 143%
TOX (mice which showed toxic lesions at the autopsy) ([3]; iv, days 1,2,3, 4.5 mg./kg.): 1/10
TC (median survival time as compared to untreated controls) ([3]; iv, days 1,2,3, 6 mg./kg.): 186%
TC (median survival time as compared to untreated controls) ([3]; iv, days 1,2,3, 7.5 mg./kg.): 186%
TC (median survival time as compared to untreated controls) ([3]; iv, days 1,2,3, 9 mg./kg.): 207%
% tumor growth at day 11 ([4]; 2.5 mg./kg.): 58%
% tumor growth at day 11 ([4]; 3 mg./kg.): 58%
% tumor growth at day 11 ([4]; 3.5 mg./kg.): 52%
% tumor growth at day 11 ([4]; 4 mg./kg.): 37%

CCCCCCCCCCCC(=O)OCC(=O)OCC(=O)C1(O)Cc2c(O)c3c(c(O)c2C(OC2CC(N)C(O)C(C)O2)C1)C(=O)c1c(OC)cccc1C3=O.Cl (centres unmarked) [adriamycin-14-0-lauroyl glycolate, Adriamycin-14-0-Lauroyl Glycolate Hydrochloride]
number of long term survivors compared with adriamycin [1]: higher number of long term survivors
LTS ([1]; Table 5, ip, day 1, 2 mg./kg.): 4/10
TC ([1]; Table 5, ip, day 1, 2 mg./kg.): 436%
LTS ([1]; Table 5, ip, day 1, 4 mg./kg.): 8/10
TC ([1]; Table 5, ip, day 1, 4 mg./kg.): 493%
TC ([1]; Table 5, ip, day 1, 8 mg./kg.): 385%
TC ([1]; Table 5, ip, day 1, 16 mg./kg.): 242%
TC ([2]; Table 5, ip, day 1, 2 mg./kg.): 135%
TC ([2]; Table 5, ip, day 1, 4 mg./kg.): 141%
TC ([2]; Table 5, ip, day 1, 8 mg./kg.): 165%
LTS ([2]; Table 5, ip, day 1, 16 mg./kg.): 1/10
TC ([2]; Table 5, ip, day 1, 16 mg./kg.): 200%
increase of the median survival time compared with adriamycin [3]: higher increase of the median survival time than does adriamycin
TC [3, 18]: 136%
LTS [3, 20]: 2/10
TC [3, 20]: 257%
TC ([3]; Table 5, first experiment, iv, days 1,2,3, 7.5 mg./kg.): 221%
TC ([3]; Table 5, first experiment, iv, days 1,2,3, 9 mg./kg.): 128%
TC ([3]; Table 5, second experiment, iv, days 1,2,3, 6 mg./kg.): 193%
TC ([3]; Table 5, second experiment, iv, days 1,2,3, 7.5 mg./kg.): 214%
activity on Moloney Sarcoma Virus [5]: most active among all of them
toxicity compared with adriamycin [6]: less toxic than adriamycin

CCCCCC(=O)SCC(=O)OCC(=O)C1(O)Cc2c(O)c3c(c(O)c2C(OC2CC(N)C(O)C(C)O2)C1)C(=O)c1c(OC)cccc1C3=O.Cl (centres unmarked) [adriamycin-14-0-hexanoyl thioglycolate, Adriamycin-14-0-Hexanoyl Thioglycolate Hydrochloride]
antitumor effect compared with adriamycin [1]: marked anti-tumor effect, slightly lower than that of adriamycin
LTS ([1]; Table 3, ip, day 1, 2 mg./kg.): 1/10
TC ([1]; Table 3, ip, day 1, 2 mg./kg.): 153%
TOX ([1]; Table 3, ip, day 1, 2 mg./kg.): 1/10
LTS ([1]; Table 3, ip, day 1, 4 mg./kg.): 2/10
TC ([1]; Table 3, ip, day 1, 4 mg./kg.): 196%
TOX ([1]; Table 3, ip, day 1, 4 mg./kg.): 1/10
LTS ([1]; Table 3, ip, day 1, 8 mg./kg.): 2/10
TC ([1]; Table 3, ip, day 1, 8 mg./kg.): 177%
TC ([1]; Table 3, ip, day 1, 16 mg./kg.): 188%
TOX ([1]; Table 3, ip, day 1, 16 mg./kg.): 6/10
antitumor activity compared with adriamycin [2]: marked anti-tumor effect, slightly lower than that of adriamycin
TC ([2]; Table 3, ip, day 1, 4 mg./kg.): 133%
TC ([2]; Table 3, ip, day 1, 8 mg./kg.): 155%
LTS ([2]; Table 3, ip, day 1, 16 mg./kg.): 2/9
TC ([2]; Table 3, ip, day 1, 16 mg./kg.): 170%
toxicity compared with adriamycin [6]: less toxic

CCCCCC(=O)OCC(=O)OCC(=O)C1(O)Cc2c(O)c3c(c(O)c2C(OC2CC(N)C(O)C(C)O2)C1)C(=O)c1c(OC)cccc1C3=O.Cl (centres unmarked) [adriamycin-14-0-hexanoyl glycolate, Adriamycin-14-0-Hexanoyl Glycolate Hydrochloride]
LTS [1, 7]: 1/10
TC [1, 7]: 250%
LTS [1, 8]: 5/10
TC [1, 8]: 493%
LTS [1, 9]: 3/10
TC [1, 9]: 346%
TC ([1]; Table 4, i.p. on day 1, 16 mg./kg.): 128%
TC [2, 7]: 133%
TC [2, 8]: 144%
LTS [2, 9]: 1/9
TC [2, 9]: 155%
toxicity compared with adriamycin [6]: less toxic
activity compared with adriamycin ([6]; tumor not given): as active as adriamycin
